Values after ≈ are worked out from the molar mass of the structure shown. Residues, ends and D or L forms follow the SMILES beside them.
Assays:
[1] = tested on: S. aureus GFP; type: cell-based, Staphylococcus aureus; conditions: Table 4; Sa GFP; lowest concentration of peptide with no bacterial growth seen on the spot agar plate
From the text: (§1) The methods to determine the MIC, MBIC and MBEC have been described in detail in our previous publication. The green fluorescent protein (GFP)-producing P. aeruginosa and S. aureus strains that were used in this work were also described in the earlier publication. Fluorescence detection was used as the main method to estimate the number of cells entrapped in the biofilm matrix. The methodology used for evaluation of the antibiofilm properties against an original Pseudomonas PA01 strain by crystal violet dye staining and the use of the Calgary biofilm device has been described elsewhere. The regular PA01 strain was provided by Dr. J. Harrison, Calgary. All measurements were carried out on an Eppendorf AF2200 plate reader. Every 96-well plate included controls for bacterial cell growth without peptide treatment and media alone. All measurements were carried out in triplicate, and the values in the figures represent the average and the error bars are standard deviation.

[2] = tested on: P. aeruginosa PAO1; type: cell-based, Pseudomonas aeruginosa; conditions: Table 5; regular PAO1 (no GFP), 1x BM2; absorbance 600 nm; mean of three biological replicates
Experimental: (§2) Figure 4 The MIC (A), MBIC (B) and MBRC (C) values for the peptides were assessed against P. aeruginosa PAO1 in the presence of 1× BM2. The inhibition of planktonic cells, the inhibition of biofilm cells and the reduction in biofilm cells were determined for the peptides by recording of the planktonic cells at 600 nm and quantification of biofilms formed by Pa PAO1 using crystal violet at 595 nm, respectively. Three biological replicates were run for each test sample, and the mean was calculated for the recorded absorption values. Data points with error bars indicate the standard deviation (±SD).
(§3) Figure 6 The MIC (A), MBIC (B) and MBEC (C) values for the tritrpticin-Lys derivatives against P. aeruginosa PAO1 were assessed by the crystal violet (CV) assay for the measurement of inhibition of biofilm formation and eradication of biofilm cells, respectively. The biofilm cells were rinsed, stained with 0.1% crystal violet for 15 min and then rinsed again. The CV was released from biofilm cells by the addition of 95% ethanol and quantified by reading on a spectrometer at 595 nm. Three replicates were run for each sample, the values were averaged and the error bars represent the standard deviation (±SD).
as §1

[3] = tested on: P. aeruginosa PAO1 GFP; test: MBIC, prevention of biofilm formation, GFP fluorescence method; type: cell-based, Pseudomonas aeruginosa; conditions: Table 2, BM2 medium, mean of three biological replicates
Experimental: (§4) Figure 1 The MIC (A), MBIC (B) and MBEC (C) values for the tritrpticin analog peptides were assessed against Pa PAO1 GFP. The MIC values were determined by measuring the absorbance of bacterial cells at 600 nm. The MBIC and MBEC values were determined by recording the fluorescence at 480 nm and 530 nm from the biofilms of GFP-expressing PAO1. Three biological replicates were run for each test sample, and the mean was calculated for the recorded absorption or fluorescence values. In the graphs, the error bars represent the standard deviation (±SD).
(§5) Figure 2 The MIC (A), MBIC (B) and MBEC (C) values for the tritrpticin-Lys derivative peptides were assessed against Pa PAO1 GFP. The MIC values were determined by measuring the absorbance of bacterial cells at 600 nm. The MBIC and MBEC values were determined by recording the fluorescence at 480 nm and 530 nm from the biofilms of GFP-expressing PAO1. Three replicates were run for each sample, the values were averaged and the error bars represent the standard deviation (±SD).
as §1

[4] = tested on: S. aureus GFP; test: MIC against planktonic cells, absorbance at 600 nm; type: cell-based, Staphylococcus aureus; conditions: Table 4; Sa GFP, 10% TSB and 0.1% glucose; absorbance 600 nm; mean of three biological replicates
Experimental: as §4, with “3” for “1”, “Sa” for “Pa PAO1”, “Sa.” for “PAO1.”
as §1

[5] = tested on: S. aureus GFP; test: MBEC, GFP fluorescence method; type: cell-based, Staphylococcus aureus; conditions: Table 4, Sa GFP, 10% TSB and 0.1% glucose, mean of three biological replicates
Experimental: as §4, with “3” for “1”, “Sa” for “Pa PAO1”, “Sa.” for “PAO1.”
as §1

[6] = tested on: S. aureus GFP; test: MBIC, GFP fluorescence method; type: cell-based, Staphylococcus aureus; conditions: Table 4, Sa GFP, 10% TSB and 0.1% glucose, mean of three biological replicates
Experimental: as §4, with “3” for “1”, “Sa” for “Pa PAO1”, “Sa.” for “PAO1.”
as §1

[7] = tested on: P. aeruginosa PAO1; type: cell-based; conditions: Table 5, PAO1, 1x BM2, crystal violet at 595 nm, mean of three biological replicates; for MBRC (CV at 595 nm) LD50 / MBRC (CV at 595 nm) LD90: minimum biofilm reduction concentration
Experimental: (§6) We note the close agreement with the MBIC and MBEC values determined by the fluorescence and CV methods, similar to what we found in our previous work for an S. aureus MRSA strain [23]. We also re-evaluated the MBEC values that are measured using the Calgary biofilm device (CBD), where biofilms form on pegs, rather than at the bottom of the 96-well plates. […] In particular, we find that the single Pro9Ala Tritrp-P9A-substituted version has better MIC, MBIC and MBEC activities than the parent peptide as well as the Tritrp-P59A analog with both prolines substituted to Ala.
as §2, §3, §1

[8] = tested on: P. aeruginosa PAO1 GFP; test: MIC against planktonic cells, absorbance at 600 nm; type: cell-based, Pseudomonas aeruginosa; conditions: Table 2, BM2 medium, absorbance 600 nm, mean of three biological replicates
Experimental: as §4, §5, §1

[9] = tested on: P. aeruginosa PAO1; type: cell-based, Pseudomonas aeruginosa; conditions: Table 5; PAO1, 1x BM2; biofilms on pegs, cells plated and counted; three biological replicates
Experimental: as §6
Figure 5 The MBEC values for the peptides were assessed against P. aeruginosa PAO1 in the presence of 1× BM2 medium. The eradication of biofilm cells was determined for the peptides using the counting of biofilm cells formed by Pa PAO1. Three biological replicates were run for each test sample, and the mean was calculated for counted cell values. Data points with error bars indicate the standard deviation (±SD).
as §1

[10] = tested on: P. aeruginosa PAO1 GFP; test: MBEC, biofilm eradication, GFP fluorescence method; type: cell-based, Pseudomonas aeruginosa; conditions: Table 2, BM2 medium, mean of three biological replicates
Experimental: as §4, §5, §1

Row | SMILES | MBC Agar Plate [1] [µM] | MIC at 600 nm LD50 [2] [µM] | MIC at 600 nm LD90 [2] [µM] | MBIC at 488 and 530 nm LD50 [3] [µmol/L] | MBIC at 488 and 530 nm LD90 [3] [µmol/L] | MIC at 600 nm LD50 [4] [µM] | MIC at 600 nm LD90 [4] [µM] | MBEC at 488 and 530 nm LD50 [5] [µmol/L] | MBEC at 488 and 530 nm LD90 [5] [µmol/L] | MBIC at 488 and 530 nm LD50 [6] [µmol/L] | MBIC at 488 and 530 nm LD90 [6] [µmol/L] | MBIC (CV at 595 nm) LD50 [7] [µmol/L] | MBIC (CV at 595 nm) LD90 [7] [µmol/L] | MBRC (CV at 595 nm) LD50 [7] [µmol/L] | MBRC (CV at 595 nm) LD90 [7] [µmol/L] | MIC at 600 nm LD50 [8] [µM] | MIC at 600 nm LD90 [8] [µM] | MBEC from Calgary Biofilm Device (CBD) LD50 [9] [µmol/L] | MBEC from Calgary Biofilm Device (CBD) LD90 [9] [µmol/L] | MBEC at 488 and 530 nm LD50 [10] [µmol/L] | also measured
1 | CC(C)[C@H](NC(=O)[C@@H]1CCCN1C(=O)[C@@H](N)Cc1ccccc1)C(=O)N[C@H](C(=O)N[C@@H](Cc1c[nH]c2ccccc12)C(=O)N[C@@H](CCCNC(=N)N)C(=O)N[C@@H](Cc1c[nH]c2ccccc12)C(=O)N[C@@H](Cc1c[nH]c2ccccc12)C(=O)N[C@@H](CCCNC(=N)N)C(=O)N[C@@H](Cc1c[nH]c2ccccc12)C(=O)N[C@@H](Cc1c[nH]c2ccccc12)C(=O)N[C@@H](CCCNC(=N)N)C(=O)NCC(N)=O)[C@@H](C)O [PuroA-Arg, reference compound] (H-FPVTWRWWRWWRG-NH2) | 8 (≈ 15.3 µg/mL) | 8 (≈ 15.3 µg/mL) | 16 (≈ 30.7 µg/mL) | 8 | 8 | 4 (≈ 7.67 µg/mL) | 4 (≈ 7.67 µg/mL) | 8 | 16 | 4 | 4 | 16 | 16 | 32 | 32 | 8 (≈ 15.3 µg/mL) | 16 (≈ 30.7 µg/mL) | 16 | 64 | 32 | MBEC at 488 and 530 nm LD90 [10]: 128 µmol/L
2 | CC(C)[C@H](NC(=O)[C@@H]1CCCN1C(=O)[C@@H](N)Cc1ccccc1)C(=O)N[C@H](C(=O)N[C@@H](Cc1c[nH]c2ccccc12)C(=O)N[C@@H](CCCCN)C(=O)N[C@@H](Cc1c[nH]c2ccccc12)C(=O)N[C@@H](Cc1c[nH]c2ccccc12)C(=O)N[C@@H](CCCCN)C(=O)N[C@@H](Cc1c[nH]c2ccccc12)C(=O)N[C@@H](Cc1c[nH]c2ccccc12)C(=O)N[C@@H](CCCCN)C(=O)NCC(N)=O)[C@@H](C)O [PuroA-Lys, reference compound] (H-FPVTWKWWKWWKG-NH2) | 8 (≈ 14.7 µg/mL) | 8 (≈ 14.7 µg/mL) | 16 (≈ 29.3 µg/mL) | 4 | 8 | 2 (≈ 3.67 µg/mL) | 4 (≈ 7.34 µg/mL) | 8 | 8 | 2 | 4 | 8 | 16 | 32 | 32 | 4 (≈ 7.34 µg/mL) | 8 (≈ 14.7 µg/mL) | 32 | 64 | 64 | MBEC at 488 and 530 nm LD90 [10]: 64 µmol/L

Source: paper PMC11858513, “Antibiofilm Activities of Tritrpticin Analogs Against Pathogenic Pseudomonas aeruginosa PA01 Strains” (Molecules, 2025)
